Measurements taken from patent publication US20120190546A1, “HERBICIDAL COMPOSITION AND METHOD OF USE THEREOF” (SYNGENTA CROP PROTECTION LLC, priority 2007, published 2012).

What was measured:
[1] = tested on: white clover (Trifolium repens); assay: Glasshouse trial: control of white clover with mesotrione and oxadiazon applied post-emergence; format: in vivo; parameters: key to Synergy (actual vs expected), Plus Mesotrione at 100 g ai/ha / Synergy (actual vs expected), Plus Mesotrione at 150 g ai/ha: ‘n’indicates no synergy observed; *indicates synergy; settings: for Synergy (actual vs expected), Plus Mesotrione at 100 g ai/ha / Synergy (actual vs expected), Plus Mesotrione at 150 g ai/ha: Student-Newman-Keuls test; for Actual weed control, Plus Mesotrione at 100 g ai/ha / Actual weed control, Plus Mesotrione at 150 g ai/ha: X-77 0.1% v/v, evaluated 7 and 14 DAT (not said which)
Experimental: (§1) In the following tests, herbicides were applied at reduced field rates because herbicide effects are magnified in a glasshouse environment. The rates tested were selected to give between about 50 and 70% control with herbicides applied alone, so that any synergistic effect could be readily detected when testing mixtures.
(§2) A glasshouse trial was carried out. White clover seeds were sown into standard glasshouse potting mix (1:1 v/v Promix:Vero sand soil) contained in 10 cm square plastic pots. Treatments were replicated three times. Mesotrione (in the form Callisto® 480SE) was applied post-emergence to white clover (Trifolium repens) at either 100 g ai/ha or 150 g ai/ha with or without oxadiazon (in the form Ronstar®). When used, oxadiazon was applied at a rate of 210 g ai/ha or 420 g ai/ha. The adjuvant system was X-77 at 0.1% v/v in deionised water. 200 litres of herbicide/adjuvant system was used per hectare. General weed control was evaluated at 7 and 14 days after treatment (DAT). It is noted that all herbicides were applied at reduced field rates because herbicide effects are magnified in a glasshouse environment. Rates were chosen to give a 50 to 70% level of control with herbicides applied alone as this allows for detection of any synergistic effect when tank mixtures are used.
(§3) The results were evaluated using the Colby formula. The expected result for (A+B) is (A+B)−(AxB/100) where A and B are the ‘observed’ results for A and B on their own.

white clover = assay: Glasshouse trial: control of white clover with mesotrione and oxadiazon applied pre-emergence; format: in vivo, Trifolium repens; parameters: key to Synergy (actual vs expected), Plus Mesotrione at 25 g ai/ha / Synergy (actual vs expected), Plus Mesotrione at 50 g ai/ha: ‘n’indicates no synergy observed; *indicates synergy
Experimental: as §1, §2, §3
A glasshouse trial was carried out as described in Example 1, except that the herbicidal composition was applied pre-emergence, and lower rates of mesotrione were used as indicated below.

[2] = oxadiazon 210 g ai/ha + mesotrione 100 g ai/ha
[3] = oxadiazon 210 g ai/ha + mesotrione 150 g ai/ha
[4] = oxadiazon 420 g ai/ha + mesotrione 100 g ai/ha
[5] = oxadiazon 420 g ai/ha + mesotrione 150 g ai/ha
[6] = oxadiazon 210 g ai/ha + mesotrione 25 g ai/ha
[7] = oxadiazon 210 g ai/ha + mesotrione 50 g ai/ha
[8] = oxadiazon 420 g ai/ha + mesotrione 25 g ai/ha
[9] = oxadiazon 420 g ai/ha + mesotrione 50 g ai/ha

## 5-tert-butyl-3-(2,4-dichloro-5-isopropoxyphenyl)-1,3,4-oxadiazol-2(3M-one [Oxadiazon]
[1]; [2]
  Expected weed control (Colby formula), Plus Mesotrione at 100 g ai/ha: 48%
  Synergy (actual vs expected), Plus Mesotrione at 100 g ai/ha: n
  Actual weed control, Plus Mesotrione at 100 g ai/ha: 48%
[1]; [3]
  Expected weed control (Colby formula), Plus Mesotrione at 150 g ai/ha: 68%
  Synergy (actual vs expected), Plus Mesotrione at 150 g ai/ha: *
  Actual weed control, Plus Mesotrione at 150 g ai/ha: 77%
[1]; [4]
  Expected weed control (Colby formula), Plus Mesotrione at 100 g ai/ha: 49%
  Synergy (actual vs expected), Plus Mesotrione at 100 g ai/ha: *
  Actual weed control, Plus Mesotrione at 100 g ai/ha: 75%
[1]; [5]
  Expected weed control (Colby formula), Plus Mesotrione at 150 g ai/ha: 69%
  Synergy (actual vs expected), Plus Mesotrione at 150 g ai/ha: *
  Actual weed control, Plus Mesotrione at 150 g ai/ha: 77%
White clover; [6]
  Actual weed control, Plus Mesotrione at 25 g ai/ha: 100%
  Expected weed control (Colby formula), Plus Mesotrione at 25 g ai/ha: 77%
  Synergy (actual vs expected), Plus Mesotrione at 25 g ai/ha: *
White clover; [7]
  Actual weed control, Plus Mesotrione at 50 g ai/ha: 98%
  Expected weed control (Colby formula), Plus Mesotrione at 50 g ai/ha: 83%
  Synergy (actual vs expected), Plus Mesotrione at 50 g ai/ha: *
White clover; [8]
  Actual weed control, Plus Mesotrione at 25 g ai/ha: 97%
  Expected weed control (Colby formula), Plus Mesotrione at 25 g ai/ha: 96%
  Synergy (actual vs expected), Plus Mesotrione at 25 g ai/ha: *
White clover; [9]
  Actual weed control, Plus Mesotrione at 50 g ai/ha: 100%
  Expected weed control (Colby formula), Plus Mesotrione at 50 g ai/ha: 97%
  Synergy (actual vs expected), Plus Mesotrione at 50 g ai/ha: *
